Test results taken from the METLIN SMRT retention time set (Domingo-Almenara et al. 2019).

Assay: gradient 5% acetonitrile 3 min, to 50% in 2 min, to 85% in 15 min, held 3 min, 100 µL/min
Conditions: column: Zorbax Extend-C18 2.1 x 50 mm; eluents: water / acetonitrile, 0.1% formic acid
Method in brief: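 Mixtures of ~100 pure standards were chromatographed on a Zorbax Extend-C18 column (2.1 × 50 mm, 1.8 μm) at 100 μL/min using water and acetonitrile, each with 0.1% formic acid. Detection used a quadrupole time-of-flight mass spectrometer in positive and negative ionization mode, and data collection spanned 3 months. Retention time was obtained from adduct peaks picked computationally and each checked manually.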

Structure (SMILES)	RP-LC retention time [s]
COc1ccc(CC(=O)N2C[C@@H]3C[C@H]2C[C@@H]3NC(=O)c2cccs2)cc1Cl	764
COC(=O)c1ccc(C(=O)NCC2CCS(=O)(=O)C2)cc1 (stereo not given)	620
O=C(NC1CC1)C1CCN(C(=O)c2ncn3c2COC(c2ccccc2)C3)CC1 (stereo not given)	619
Cc1nc(-c2cn(C)c3ncccc23)sc1C(=O)NCc1ccc2c(c1)OCO2	826
O=c1c2cc(-c3ccc4c(c3)OCO4)nn2ccn1Cc1ccccc1F	985
CN(Cc1cccnc1)C(=O)C12CCC=C1N(C1CCCC1)C(=O)CC2 (stereo not given)	577
COc1ccc(-c2nn3c(N4CCN(c5ccccn5)CC4)cc(C)nc3c2C)cc1OC	606
COc1ccc2[nH]c3c(c2c1)CCN1C(=O)N(c2cccc(Cl)c2)C(=O)C31C (stereo not given)	1030
CC1CN2C=NC(N3CCN(C(=O)Nc4cc(F)cc(F)c4)CC3)=CC2=N1 (stereo not given)	664
CCCn1c(=O)c(C)nc2cc(-c3noc(C4CC(=O)N(c5ccc(C)c(C)c5)C4)n3)ccc21 (stereo not given)	1050
O=C(Nc1ccccc1F)N1CCC(n2cnc3ccccc3c2=O)CC1	712
O=C(N[C@H]1C[C@@H]2C[C@H]1CN2S(=O)(=O)c1cccnc1)c1ccccc1	697
Cn1nnnc1SCCNCc1ccc2c(c1)OCCO2	577
CCn1c(=O)c(C(=O)NCc2ccccc2OC)nc2cccnc21	800
COc1cc(-n2c(=O)c3ccccc3n(Cc3ccccc3F)c2=O)cc(OC)c1OC	850
O=C(Nc1ccc2c(c1)OCO2)C1CCCN(S(=O)(=O)c2c[nH]c(C(=O)N3CCCC3)c2)C1 (stereo not given)	747
CC1CCN(C(=O)C(=O)NCc2n[nH]c(=O)c3ccccc23)CC1	639

Continued, values first:

RP-LC retention time [s]	Structure (SMILES)
1300	CCn1nccc1-c1cccc(-c2noc(-c3cc(Cl)ccc3F)n2)c1
1170	CC1CCN(S(=O)(=O)c2cc(C(=O)Nc3ccc(F)c(Cl)c3)n(C)c2)CC1
613	Cc1cc(=O)n(CC(=O)NCc2ccc(Cl)cc2)c(N)n1
1030	O=C(CCc1nc(CSc2nc3ccccc3o2)no1)Nc1nc(-c2ccccc2)cs1
946	CC1(C(=O)NCc2ccccc2)CCCN(S(=O)(=O)c2ccccc2Cl)C1 (stereo not given)
695	CCC(=O)Nc1c(C)noc1/C=C\c1ccc(S(=O)(=O)Nc2ccc(S(N)(=O)=O)cc2)cc1
798	Cc1ccccc1CNC(=O)c1ncn2c1C(=O)N(C1CC1)C(C)(C(=O)NCc1ccc(F)cc1)C2 (stereo not given)
656	CC(CC(=O)N1CCN(Cc2ccccc2)CC1)S(=O)(=O)c1ccc2c(c1)CCN2C(=O)C1CC1 (stereo not given)
654	Cc1ccc2c(Nc3cccc(Cl)c3)c(C(=O)N3CCSCC3)cnc2n1
1030	CCCc1noc(-c2ccc(-n3ncc(C(=O)NC4CCCC4)c3C)nc2)n1
696	CCOc1ccc(NC(=O)N2CCC(c3nc(C(=O)N(C)C)c(C)o3)CC2)cc1
730	O=C(c1ccc2[nH]ccc2c1)N1C[C@@H]2C[C@H]1C[C@@H]2NS(=O)(=O)c1ccccc1
750	CC(=O)Nc1cccc(-c2nc(-c3ccc4c(c3)oc(=O)n4C)no2)c1C
1170	CCc1nc2c(sc3nc(-c4ccccc4)ccc32)c(=O)n1CC(=O)N1CCc2ccccc2C1
892	COc1ccc(NC(=O)c2nnc(CCCC(=O)NCCc3c[nH]c4ccc(Cl)cc34)s2)cc1
886	COc1ccc(-c2c(C)noc2NC(C)=O)cc1S(=O)(=O)NCCC1=CCCCC1
982	CCN1C(=O)C(C)(C(=O)Nc2cccc(Cl)c2)Oc2cccnc21 (stereo not given)
649	Cc1ccc2c(Nc3ccc4c(c3)OCCO4)c(C(=O)N3CCC(C)CC3)cnc2n1
